Reference: patent publication US12396461B2, “Functional peptides having antimicrobial activity against phytopathogenic microorganisms” (TOYOTA JIDOSHA KABUSHIKI KAISHA, priority 2019, dated 2025)
Values joined by “and” are separate entries in the source; they are usually repeats but may differ in a detail not shown here. Equal entries are not always repeated. “Also recorded” adds a separate entry of the source. Where two headings read alike, the source gives them in different places. Where no end group is shown, it is not given here.

What was measured:
[1] = system: Pyricularia oryzae; format: cell-based; design: key to Plate antimicrobial activity test Pyricularia oryzae, level: a case where hyphae extended to the entire well and no antimicrobial activity was found is defined as “level 0,”; a case where hyphae extended to less than a half of the well and thus the peptide inhibited the growth of the hyphae is defined as “level 1,”; a case where ungerminated spores were present and the peptide partially inhibited the germination is defined as “level 2,”; a case where all spores were ungerminated and the peptide completely inhibited the germination is defined as “level 3.”; conditions: for Plate antimicrobial activity test Pyricularia oryzae, level: 25° C. for 1 day or 2 days, microscopic observation
[2] = system: Fusarium oxysporum; format: cell-based; design: key to Plate antimicrobial activity test Fusarium oxysporum, level: a case where hyphae extended to the entire well and no antimicrobial activity was found is defined as “level 0,”; a case where hyphae extended to less than a half of the well and thus the peptide inhibited the growth of the hyphae is defined as “level 1,”; a case where ungerminated spores were present and the peptide partially inhibited the germination is defined as “level 2,”; a case where all spores were ungerminated and the peptide completely inhibited the germination is defined as “level 3.”
[3] = system: Botrytis cinerea; assay: Botrytis cinerea leaf inoculation test (tomato leaf); format: in vivo; conditions: peptide 100 μM; tomato leaf, 25° C. for 2 days, lesions by visual inspection; symbols ◯/Δ/X not defined
Description: In the present example, a suspension comprising Botrytis cinerea and a peptide to be tested was dropped on a plant leaf, and lesions were then observed by visual inspection to evaluate the antimicrobial activity of the tested peptide. First, the pores of Botrytis cinerea were suspended in a potato dextrose broth (PDB) to result in a spore concentration of 5×10^5 spores/ml, so as to prepare a PDB suspension spore solution. Subsequently, a peptide to be tested (TsORF6-1) was added to the PDB suspension spore solution, so that the final concentration of the peptide to be tested became 0 μM, 1 μM, 10 μM or 100 μM. Thereafter, 10 μl each of the PDB suspension spore solution containing the peptide to be tested was dropped on the front side and the back side of the leaf of tomato (variety name: “Momotaro Fight”). In this condition, incubation was carried out at 25° C. for 2 days. Thereafter, the front and back sides of the leaf were observed by visual inspection.

[4] = system: Colletotrichum destructivum; format: cell-based; design: key to Plate antimicrobial activity test Colletotrichum destructivum, level: a case where hyphae extended to the entire well and no antimicrobial activity was found is defined as “level 0,”; a case where hyphae extended to less than a half of the well and thus the peptide inhibited the growth of the hyphae is defined as “level 1,”; a case where ungerminated spores were present and the peptide partially inhibited the germination is defined as “level 2,”; a case where all spores were ungerminated and the peptide completely inhibited the germination is defined as “level 3.”; conditions: for Plate antimicrobial activity test Colletotrichum destructivum, level: 25° C. for 1 day or 2 days, microscopic observation
[5] = system: Xanthomonas oryzae pv. oryzae
[6] = system: Ralstonia solanacearum; conditions: 100 μM
[7] = system: Colletotrichum orbiculare; format: cell-based; design: key to Plate antimicrobial activity test Colletotrichum orbiculare, level: a case where hyphae extended to the entire well and no antimicrobial activity was found is defined as “level 0,”; a case where hyphae extended to less than a half of the well and thus the peptide inhibited the growth of the hyphae is defined as “level 1,”; a case where ungerminated spores were present and the peptide partially inhibited the germination is defined as “level 2,”; a case where all spores were ungerminated and the peptide completely inhibited the germination is defined as “level 3.”; conditions: for Plate antimicrobial activity test Colletotrichum orbiculare, level: 25° C. for 1 day or 2 days, microscopic observation
[8] = system: Colletotrichum destructivum; assay: Colletotrichum destructivum leaf inoculation test (Chinese cabbage leaf); format: in vivo; conditions: 25° C. for 4 days; for lesion of Colletotrichum destructivum on Chinese cabbage leaf, result in words: FIG. 3; for Leaf inoculation test Chinese cabbage/Colletotrichum destructivum: lesions by visual inspection, symbols ◯/Δ/X not defined
Description: In the present example, a suspension comprising Colletotrichum destructivum and a peptide to be tested was dropped on a plant leaf, and lesions were then observed by visual inspection to evaluate the antimicrobial activity of the tested peptide. First, the pores of Colletotrichum destructivum were suspended in water to result in a spore concentration of 5×10^5 spores/ml, so as to prepare a water suspension of spores. Subsequently, a peptide to be tested (TsORF6-1) was added to the water suspension of spores, so that the final concentration of the peptide to be tested became 0 μM, 1 μM, 10 μM or 100 μM. Thereafter, 10 μl each of the water suspension of spores containing the peptide to be tested was dropped on the front side and the back side of the leaf of Chinese cabbage (variety name: “Kigokoro 85”). In this condition, incubation was carried out at 25° C. for 4 days. Thereafter, the front and back sides of the leaf were observed by visual inspection.

[9] = system: Erwinia carotovora subsp. carotovora; conditions: 100 μM
[10] = system: Pseudomonas syringae pv. tomato
[11] = system: Botrytis cinerea; format: cell-based; design: key to Plate antimicrobial activity test Botrytis cinerea, level: a case where hyphae extended to the entire well and no antimicrobial activity was found is defined as “level 0,”; a case where hyphae extended to less than a half of the well and thus the peptide inhibited the growth of the hyphae is defined as “level 1,”; a case where ungerminated spores were present and the peptide partially inhibited the germination is defined as “level 2,”; a case where all spores were ungerminated and the peptide completely inhibited the germination is defined as “level 3.”; conditions: for Plate antimicrobial activity test Botrytis cinerea, level: 25° C. for 1 day or 2 days, microscopic observation
[12] = (FIG. 1, Table 3), concentration not given

## MKVMIVVKTKVKNKKVAKMMVK [TsORF6-1]
[1]; [12]
  germination of Pyricularia oryzae, result in words: completely inhibited in terms of germination; also recorded: could inhibit germination
[1]; peptide 1 μM
  Plate antimicrobial activity test Pyricularia oryzae, level: 0
[1]; peptide 10 μM
  Plate antimicrobial activity test Pyricularia oryzae, level: 0
[1]; peptide 100 μM
  Plate antimicrobial activity test Pyricularia oryzae, level: 2
[2]
  Plate antimicrobial activity test Fusarium oxysporum, level: 2 and 0
  germination of Fusarium oxysporum, result in words: completely inhibited in terms of germination; also recorded: could inhibit germination
[3]
  Leaf inoculation test Tomato/Botrytis cinerea: ◯
[4]; [12]
  germination of Colletotrichum destructivum, result in words: completely inhibited in terms of germination; also recorded: could inhibit germination
[4]; peptide 1 μM
  Plate antimicrobial activity test Colletotrichum destructivum, level: 0
[4]; peptide 10 μM
  Plate antimicrobial activity test Colletotrichum destructivum, level: 0
[4]; peptide 100 μM
  Plate antimicrobial activity test Colletotrichum destructivum, level: 3
[5]; 100 μM, calculated from OD600 versus water added
  Inhibitory rate Xanthomonas oryzae pv. oryzae: 47.6%
[5]; 100 μM, cultured at 28° C. a whole day and night
  OD600 Xanthomonas oryzae pv. oryzae: 1.1
[5]; Table 4
  growth of Xanthomonas oryzae pv. oryzae, result in words: could inhibit the growth
[6]; calculated from OD600 versus water added
  Inhibitory rate Ralstonia solanacearum: −5.2%
[6]; cultured at 28° C. a whole day and night
  OD600 Ralstonia solanacearum: 2.7
[7]; [12]
  germination of Colletotrichum orbiculare, result in words: completely inhibited in terms of germination; also recorded: could inhibit germination
[7]; peptide 1 μM
  Plate antimicrobial activity test Colletotrichum orbiculare, level: 0
[7]; peptide 10 μM
  Plate antimicrobial activity test Colletotrichum orbiculare, level: 0
[7]; peptide 100 μM
  Plate antimicrobial activity test Colletotrichum orbiculare, level: 2
[8]; water suspension of spores containing 10 μl peptide
  lesion of Colletotrichum destructivum on Chinese cabbage leaf, result in words: a lesion of Colletotrichum destructivum was not observed
[8]; water suspension of spores containing 100 μl peptide
  lesion of Colletotrichum destructivum on Chinese cabbage leaf, result in words: a lesion of Colletotrichum destructivum was not observed
[8]; peptide 10 μM
  Leaf inoculation test Chinese cabbage/Colletotrichum destructivum: ◯
[8]; peptide 100 μM
  Leaf inoculation test Chinese cabbage/Colletotrichum destructivum: ◯
[9]
  Inhibitory rate Erwinia carotovora subsp. carotovora: −14.9%
  OD600 Erwinia carotovora subsp. carotovora: 2.2
[10]
  growth of Pseudomonas syringae pv. tomato, result in words: could inhibit the growth
[10]; 100 μM
  Inhibitory rate Pseudomonas syringae pv. tomato: 90.6%
  OD600 Pseudomonas syringae pv. tomato: 0.2
[11]; [12]
  germination of Botrytis cinerea, result in words: completely inhibited in terms of germination; also recorded: could inhibit germination
[11]; peptide 1 μM
  Plate antimicrobial activity test Botrytis cinerea, level: 0
[11]; peptide 10 μM
  Plate antimicrobial activity test Botrytis cinerea, level: 0
[11]; peptide 100 μM
  Plate antimicrobial activity test Botrytis cinerea, level: 3
